This note sets out measurements from patent US20250214942A1, “INHIBITORS OF RECEPTOR INTERACTING PROTEIN KINASE I FOR THE TREATMENT OF DISEASE” (Board of Regents, The University of Texas System, priority 2019, published 2025).

The assay relates to human monocytic cell line U937. Kind of assay: Human U937 cellular necroptosis assay (TNFalpha + z-VAD-FMK, Cell Titer-Glo viability). In kind it is cell-based. The conditions noted are these: Homo sapiens, U-937, 22 h, U937 cells, 25 ng/mL human TNFalpha + 25 μM z-VAD-FMK, read-out: hU937 Avg IC50. As for the experimental part: The human monocytic cell line U937 (CRL-1593.2) was purchased from ATCC. The cells were routinely maintained in RPMI-1640 Medium (Gibco, Catalog #11875-093) supplemented with 10% heat inactivated fetal bovine serum (Gibco, Catalog #16140-071), 100 units/mL penicillin and 100 μg/mL streptomycin (Gibco, Catalog #15140-122), in a humidified incubator (37° C., 5% CO2). For the assay, cells were resuspended in RPMI-1640 phenol red free Media (Gibco, Catalog #11835-030) supplemented with 10% fetal bovine serum (Sigma, Catalog #F2442), 100 units/mL penicillin and 100 ug/mL streptomycin. Cells were stimulated with 25 ng/mL human TNFalpha (Cell Sciences, Catalog #CSI15659B) and 25 μM z-VAD-FMK (R&D Systems, Catalog #FMK001) followed by seeding 5000 cells per well in a volume of 40 μL to a white, CulturPlate-384 (Perkin Elmer, Catalog #6007680). Stock solutions of the test compounds were prepared in 100% DMSO (Sigma, Catalog #D2650) and serially diluted 1:3 using 100% DMSO. Compounds were additionally diluted 1:40 in assay medium, and 10 μL/well was transferred to the plate. Following the compound addition the plate was incubated at 37° C. and 5% CO2 for 22 h. After 22 h, viability was assessed with the addition of 20 μL of Cell Titer-Glo 2.0 (Promega, Catalog #G9243). The tissue culture plate was shaken on an orbital shaker at 300 RPM for 15 minutes at rt in the dark. Luminescence was measured using a PerkinElmer Envision™ plate reader. IC50 values were calculated using a four-parameter logistic curve fit using Genedata Screener software. Results are shown below in Table 3, where the average value across multiple runs is given.
`COc1cc(C(O)C23CC(C(=O)N4N=CCC4c4cc(F)cc(F)c4)(C2)C3)ncn1` (centres unmarked) [Example 232, (5-(3,5-difluorophenyl)-4,5-dihydro-1H-pyrazol-1-yl)(3-(hydroxy(6-methoxy-pyrimidin-4-yl)methyl)-bicyclo[1.1.1]pentan-1-yl)-methanone]: the half-maximal inhibitory concentration (IC50) (commonly the point on the concentration scale where inhibition reaches its midpoint) was 8.11 µM.
Under `Cc1cnc(C2CC=NN2C(=O)C23CC(Cn4ncc5nc(C#N)ccc54)(C2)C3)cn1` (centres unmarked) [Example 235, 1-((3-(5-(5-methylpyrazin-2-yl)-4,5-dihydro-1H-pyrazole-1-carbonyl)bicyclo[1.1.1]-pentan-1-yl)methyl)-1H-pyrazolo[4,3-b]pyridine-5-carbonitrile] stands 0.339 µM; under `Cc1cc(F)c(C2CC=NN2C(=O)C23CC(Cn4ncc5cc(C#N)ccc54)(C2)C3)cc1F` (centres unmarked) [Example 236, 1-((3-(5-(2,5-difluoro-4-methylphenyl)-4,5-dihydro-1H-pyrazole-1-carbonyl)-bicyclo[1.1.1]pentan-1-yl)-methyl)-1H-indazole-5-carbonitrile], 0.0038 µM; under `N#Cc1ccc2c(cnn2CC23CC(C(=O)N4N=CCC4c4cccc(F)c4F)(C2)C3)c1` (centres unmarked) [Example 237, 1-((3-(5-(2,3-difluoropheny1)-4,5-dihydro-1H-pyrazole-1-carbonyl)bicyclo[1.1.1]pentan-1-yl)methyl)-1H-indazole-5-carbonitrile], 0.0078 µM.
Regarding `Cc1ccc(C2CC=NN2C(=O)C23CC(Cn4ncc5cc(C#N)ccc54)(C2)C3)c(F)c1` (centres unmarked) [Example 238, 1-((3-(5-(2-fluoro-4-methyl-phenyl)-4,5-dihydro-1H-pyrazole-1-carbonyl)bicyclo-[1.1.1]pentan-1-yl)methyl)-1H-indazole-5-carbonitrile], the IC50 came out at 0.0084 µM.
Consider `Cc1ccc(C2CC=NN2C(=O)C23CC(Cn4ncc5cc(C#N)ccc54)(C2)C3)cc1F` (centres unmarked) [Example 239, 1-((3-(5-(3-fluoro-4-methyl-phenyl)-4,5-dihydro-1H-pyrazole-1-carbonyl)bicyclo-[1.1.1]pentan-1-yl)methyl)-1H-indazole-5-carbonitrile], for which the IC50 was found to be 0.01 µM.
Regarding `N#Cc1ccc2c(cnn2CC23CC(C(=O)N4N=CCC4c4ccc(F)cc4F)(C2)C3)c1` (centres unmarked) [Example 240, 1-((3-(5-(2,4-difluorophenyl)-4,5-dihydro-1H-pyrazole-1-carbonyl)bicyclo[1.1.1]pentan-1-yl)methyl)-1H-indazole-5-carbonitrile], the IC50 amounted to 0.013 µM.
The result for `N#Cc1ccc2c(cnn2CC23CC(C(=O)N4N=CCC4c4cc(F)c(Br)c(F)c4)(C2)C3)c1` (centres unmarked) [Example 241, 1-((3-(5-(4-bromo-3,5-difluorophenyl)-4,5-dihydro-1H-pyrazole-1-carbonyl)-bicyclo[1.1.1]pentan-1-yl)-methyl)-1H-indazole-5-carbonitrile] reads 0.018 µM.
Under `N#Cc1ccc2c(cnn2CC23CC(C(=O)N4N=CCC4c4ccc(F)c(F)c4)(C2)C3)c1` (centres unmarked) [Example 242, 1-((3-(5-(3,4-difluorophenyl)-4,5-dihydro-1H-pyrazole-1-carbonyl)bicyclo[1.1.1]pentan-1-yl)methyl)-1H-indazole-5-carbonitrile] stands 0.02 µM; under `Cc1cccc(C2CC=NN2C(=O)C23CC(Cn4ncc5cc(C#N)ccc54)(C2)C3)c1` (centres unmarked) [Example 243, 1-((3-(5-(m-tolyl)-4,5-dihydro-1H-pyrazole-1-carbonyl)-bicyclo[1.1.1]pentan-1-yl)-methyl)-1H-indazole-5-carbonitrile], 0.031 µM.
Under `N#Cc1ccc2c(cnn2CC23CC(C(=O)N4N=CCC4c4ccc(F)cc4)(C2)C3)c1` (centres unmarked) [Example 244, 1-((3-(5-(4-fluorophenyl)-4,5-dihydro-1H-pyrazole-1-carbonyl)bicyclo[1.1.1]pentan-1-yl)methyl)-1H-indazole-5-carbonitrile] stands 0.037 µM; under `N#Cc1ccc2c(cnn2CC23CC(C(=O)N4N=CCC4c4cccc(Cl)c4Cl)(C2)C3)c1` (centres unmarked) [Example 245, 1-((3-(5-(2,3-dichlorophenyl)-4,5-dihydro-1H-pyrazole-1-carbonyl)bicyclo[1.1.1]pentan-1-yl)methyl)-1H-indazole-5-carbonitrile], 0.043 µM.
Regarding `Cc1ncc(C2CC=NN2C(=O)C23CC(Cn4ncc5cc(C#N)ccc54)(C2)C3)cc1F` (centres unmarked) [Example 246, 1-((3-(5-(5-fluoro-6-methyl-pyridin-3-yl)-4,5-dihydro-1H-pyrazole-1-carbonyl)bicyclo-[1.1.1]pentan-1-yl)methyl)-1H-indazole-5-carbonitrile], the IC50 was found to be 0.073 µM.
With `N#Cc1ccc2c(cnn2CC23CC(C(=O)N4N=CCC4c4ncc5ccccn45)(C2)C3)c1` (centres unmarked) [Example 247, 1-((3-(5-(imidazo[1,5-a]-pyridin-3-yl)-4,5-dihydro-1H-pyrazole-1-carbonyl)bicyclo[1.1.1]pentan-1-yl)methyl)-1H-indazole-5-carbonitrile], the concentration for half-maximal inhibition (IC50) worked out at 0.081 µM.
The result for `Cc1ccc(C2CC=NN2C(=O)C23CC(Cn4ncc5cc(C#N)ccc54)(C2)C3)cn1` (centres unmarked) [Example 249, 1-((3-(5-(6-methylpyridin-3-yl)-4,5-dihydro-1H-pyrazole-1-carbonyl)bicyclo[1.1.1]-pentan-1-yl)methyl)-1H-indazole-5-carbonitrile] reads 0.299 µM; that for `Cc1csc(C2CC=NN2C(=O)C23CC(Cn4ncc5cc(C#N)ccc54)(C2)C3)n1` (centres unmarked) [Example 250, 1-((3-(5-(4-methylthiazol-2-yl)-4,5-dihydro-1H-pyrazole-1-carbonyl)bicyclo[1.1.1]-pentan-1-yl)methyl)-1H-indazole-5-carbonitrile], 0.267 µM; that for `N#Cc1ccc2c(cnn2CC23CC(C(=O)N4N=CCC4c4ccc(C#N)s4)(C2)C3)c1` (centres unmarked) [Example 251, 1-((3-(5-(5-cyanothiophen-2-yl)-4,5-dihydro-1H-pyrazole-1-carbonyl)bicyclo[1.1.1]-pentan-1-yl)methyl)-1H-indazole-5-carbonitrile], 0.397 µM.
Under `N#Cc1ccc2c(cnn2CC23CC(C(=O)N4N=CCC4c4nc(C#N)cs4)(C2)C3)c1` (centres unmarked) [Example 254, 2-(1-(3-((5-cyano-1H-indazol-1-yl)methyl)bicyclo[1.1.1]-pentane-1-carbonyl)-4,5-dihydro-1H-pyrazol-5-yl)-thiazole-4-carbonitrile] stands 0.503 µM; under `C[C@H](NC(=O)C12CC(Cn3ncc4cc(C#N)ccc43)(C1)C2)c1c(F)cccc1Cl` [Example 256, (S)-N-(1-(2-chloro-6-fluoro-phenyl)ethyl)-3-((5-cyano-1H-indazol-1-yl)methyl)bicyclo-[1.1.1]pentane-1-carboxamide], 0.895 µM; under `CC1CC(c2cccc(F)c2)N(C(=O)C23CC(Cn4ncc5cc(C#N)ccc54)(C2)C3)C1` (centres unmarked) [Example 257, 1-((3-(2-(3-fluorophenyl)-4-methylpyrrolidine-1-carbonyl)-bicyclo[1.1.1]pentan-1-yl)-methyl)-1H-indazole-5-carbonitrile], 2.08 µM.
Under `N#Cc1ccc2c(cnn2CC23CC(C(=O)N4N=CCC4c4ncccn4)(C2)C3)c1` (centres unmarked) [Example 259, 1-((3-(5-(pyrimidin-2-yl)-4,5-dihydro-1H-pyrazole-1-carbonyl)bicyclo[1.1.1]pentan-1-yl)methyl)-1H-indazole-5-carbonitrile] stands 5.45 µM; under `Cc1c(F)cc(C2CC=NN2C(=O)C23CC(COc4ccc(C#N)cn4)(C2)C3)cc1F` (centres unmarked) [Example 264, 6-((3-(5-(3,5-difluoro-4-methylphenyl)-4,5-dihydro-1H-pyrazole-1-carbonyl)-bicyclo[1.1.1]pentan-1-yl)-methoxy)nicotinonitrile], 0.012 µM; under `Cc1c(F)cc([C@@H]2CC=NN2C(=O)C23CC(COc4ccc(C#N)cn4)(C2)C3)cc1F` [Example 265, (S)-6-((3-(5-(3,5-difluoro-4-methylphenyl)-4,5-dihydro-1H-pyrazole-1-carbonyl)-bicyclo[1.1.1]pentan-1-yl)-methoxy)nicotinonitrile], 0.0083 µM.
Regarding `Cc1c(F)cc([C@H]2CC=NN2C(=O)C23CC(COc4ccc(C#N)cn4)(C2)C3)cc1F` [Example 266, (R)-6-((3-(5-(3,5-difluoro-4-methylphenyl)-4,5-dihydro-1H-pyrazole-1-carbonyl)-bicyclo[1.1.1]pentan-1-yl)-methoxy)nicotinonitrile], the IC50 was 1.8 µM.
Under `Cc1ccc(C2CC=NN2C(=O)C23CC(COc4cnc(C#N)cn4)(C2)C3)c(F)c1` (centres unmarked) [Example 267, 5-((3-(5-(2-fluoro-4-methyl-phenyl)-4,5-dihydro-1H-pyrazole-1-carbonyl)bicyclo-[1.1.1]pentan-1-yl)methoxy)-pyrazine-2-carbonitrile] stands 0.0038 µM; under `N#Cc1cnc(OCC23CC(C(=O)N4N=CCC4c4cc(F)ccc4F)(C2)C3)cn1` (centres unmarked) [Example 268, 5-((3-(5-(2,5-difluorophenyl)-4,5-dihydro-1H-pyrazole-1-carbonyl)bicyclo[1.1.1]pentan-1-yl)methoxy)pyrazine-2-carbonitrile], 0.0039 µM.
